Results from patent publication US5324821A, “Method of preparing a lipoprotein modified by incorporation of a lipophilic active substance” (Universite Droit et Sante Lille II, priority 1990, dated 1994).

System: LDLs
Experiment: Quantities of drug incorporated into LDLs
Format: physicochemical
Conditions: incubation 18 hours at 37° C.
Procedure: One mg of drug is dissolved in the minimum quantity of an organic solvent (chloroform) then the solvent is evaporated under reduced pressure.
Two hundred μl of washed Endolipide are then added. The tube is shaken vigorously, swirling for 1 minute to dissolve the drug in the lipid phase. The LDLs are then added in a quantity containing 1 mg of proteins, assayed by the method of Lowry modified by Peterson (see Lowry et al., J. Biol. Chem. 193, 265-275 (1951)) and 5 ml of LPDS. After stirring, the mixture is incubated for 18 hours at 37° C.
The LDLs are then separated by ultracentrifugation according to a KBr density gradient (centrifugation for 24 hours at 4° C. and 40,000 rpm).
The modified LDLs are then dialyzed against an NaCl solution, 140 mM, pH 8, then filtered under sterile conditions (0.22 μm) and stored under nitrogen.
drugs (on the modified LDLs): the ametantrone esters were tested after precipitation of apolipoprotein B with isopropanol. For this purpose, 100 μl of LDL are added to 100 μl of isopropanol and stirred for 1 minute then left to stand overnight at 10° C. with stirring. The mixture is then centrifuged for 30 minutes at 300 rpm. The supernatant is removed and evaporated. The residue is treated with 1 ml of chloroform. The optical density is read off at a wavelength of 614 nm and compared to a reference range of the drug.
The elliptinium esters are tested by HPLC according to the technique described by Samadi-Baboli (thesis cited above).

[1] = ametantrone and mitoxantrone and esters, per particle of LDL, ametantrone esters by optical density at 614 nm
[2] = elliptinium esters, tested by HPLC

Row | quantity of drug incorporated into LDLs (uptake) [2] | SMILES | quantity of drug incorporated into LDLs (uptake) [1]
1 |  | CC/C=C\C/C=C\C/C=C\CCCCCCCC(=O)OCCNCCNc1ccc(NCCNCCOC(=O)CCCCCCC/C=C\C/C=C\C/C=C\CC)c2c1C(=O)c1ccccc1C2=O [Ametantrone dilinolenate] | 90 molecules/particle
2 |  | CCCCCCCC/C=C\CCCCCCCC(=O)OCCNCCNc1ccc(NCCNCCOC(=O)CCCCCCC/C=C\CCCCCCCC)c2c1C(=O)c1ccccc1C2=O [Ametantrone dioleate] | 2 molecules/particle
3 |  | CCCCCCCCCCCCCCCC(=O)OCCNCCNc1ccc(NCCNCCOC(=O)CCCCCCCCCCCCCCC)c2c1C(=O)c1ccccc1C2=O [Ametantrone dipalmitate] | 2 molecules/particle
4 |  | CCCCCCCCCCCCCCCCCC(=O)OCCNCCNc1ccc(NCCNCCOC(=O)CCCCCCCCCCCCCCCCC)c2c1C(=O)c1ccccc1C2=O [Ametantrone distearate] | 1 molecules/particle
5 |  | CC/C=C\C/C=C\C/C=C\CCCCCCCC(=O)OCCNCCNc1ccc(NCCNCCO)c2c1C(=O)c1ccccc1C2=O [Ametantrone monolinolenate] | 80 molecules/particle
6 |  | CCCCCCCC/C=C\CCCCCCCC(=O)OCCNCCNc1ccc(NCCNCCO)c2c1C(=O)c1ccccc1C2=O [Ametantrone monooleate] | 2 molecules/particle
7 |  | CCCCCCCCCCCCCCCC(=O)OCCNCCNc1ccc(NCCNCCO)c2c1C(=O)c1ccccc1C2=O [Ametantrone monopalmitate] | 2 molecules/particle
8 |  | CCCCCCCCCCCCCCCCCC(=O)OCCNCCNc1ccc(NCCNCCO)c2c1C(=O)c1ccccc1C2=O [Ametantrone monostearate] | 1 molecules/particle
9 |  | O=C1c2ccccc2C(=O)c2c(NCCNCCO)ccc(NCCNCCO)c21 [Ametantrone, reference compound] | 1 molecules/particle
10 | 83 μg per mg of protein | CCCCCCCC/C=C\CCCCCCCC(=O)Oc1ccc2[nH]c3c(C)c4cc[n+](C)cc4c(C)c3c2c1 [Elliptinium oleate] | 
11 | 58 μg per mg of protein | CCCCCCCCCCCCCCCC(=O)Oc1ccc2[nH]c3c(C)c4cc[n+](C)cc4c(C)c3c2c1 [Elliptinium palmitate] | 
12 | 37 μg per mg of protein | CCCCCCCCCCCCCCCCCC(=O)Oc1ccc2[nH]c3c(C)c4cc[n+](C)cc4c(C)c3c2c1 [Elliptinium stearate] | 
13 |  | CC/C=C\C/C=C\C/C=C\CCCCCCCC(=O)OCCNCCNc1ccc(NCCNCCOC(=O)CCCCCCC/C=C\C/C=C\C/C=C\CC)c2c1C(=O)c1c(O)ccc(O)c1C2=O [Mitoxantrone dilinolenate] | 22 molecules/particle
14 |  | O=C1c2c(O)ccc(O)c2C(=O)c2c(NCCNCCO)ccc(NCCNCCO)c21 [Mitoxantrone, reference compound] | 1 molecules/particle
